Test results as given in patent US20130158049A1, “7-AZAINDOLE INHIBITORS OF CRAC” (Hoffmann-La Roche Inc., priority 2011, published 2013).

These compounds were tested on Jurkat IL-2 Production (assay: Jurkat IL-2 Production Assay). Conditions: Homo sapiens; Jurkat cell (ATCC); PHA 5 μg/mL with 1% FBS, or PMA/Ionomycin with 30% FBS (table does not say which); incubation 18 h~20 h.
Type: cell-based
Description: Jurkat IL-2 Production Assay
Cell: Jurkat cell (ATCC) was grown in RPMI 1640 with 10% FBS and 1% penicillin/streptomycin. The cell density was kept at 1.2˜1.8×10^6/mL in culture flask before seeding into culture plate, and the cell density in the plate was 0.5×10^6/[…]/well.
Culture media: RPMI 1640 with 1% FBS or 30% FBS for high serum assay.
Test compound: serial dilution was done in 100% DMSO, and intermediate dilution was done with RPMI 1640 medium with 1% FBS. The DMSO final concentration in culture well was 0.25%.
Stimulant: PHA (Sigma#L9017-10MG) was used for the assay with 1% FBS in culture medium, and added after 10 minutes exposure of cell to compound/DMSO. The PHA final concentration in culture well was 5 μg/mL. PMA (Sigma# P-8139 5MG)/Ionomycin (Sigma# I0634-5MG) was used for the assay with 30% FBS in culture medium, and added at same time point as the 1% FBS culture assay. The final concentration of PMA was 50 ng/mL, and Ionomycin final concentration was 500 ng/mL.
Incubation: at 37° C. with 5% CO2 and 95% humidity for 18 h˜20 h.
IC50: IC50 was calculated with the data analysis software XLfit4, General Pharmacology model 251.

SMILES	IC50
Cc1cc(S(C)(=O)=O)ncc1-c1cnc2[nH]c(-c3ccncc3C)cc2c1 [Example 24, 5-(4-Methyl-6-(methylsulfonyl)pyridin-3-yl)-2-(3-methylpyridin-4-yl)-1H-pyrrolo[2,3-b]pyridine]	248 nM
Cn1nc(C(F)(F)F)cc1-c1cnc2[nH]c(-c3c(F)cccc3F)cc2c1 [Example 6, 2-(2,6-Difluoro-phenyl)-5-(2-methyl-5-trifluoromethyl-2H-pyrazol-3-yl)-1H-pyrrolo[2,3-b]pyridine]	113 nM
CCn1nc(-c2cccnc2)cc1-c1cnc2[nH]c(C3CCCCC3)cc2c1 [Example 32, 2-Cyclohexyl-5-(1-ethyl-3-(pyridin-3-yl)-1H-pyrazol-5-yl)-1H-pyrrolo[2,3-b]pyridine]	108 nM
CCn1nc(-c2cccnc2)cc1-c1cnc2[nH]c(-c3c(C)noc3C)cc2c1 [Example 30, 2-(3,5-Dimethyl-isoxazol-4-yl)-5-(2-ethyl-5-pyridin-3-yl-2H-pyrazol-3-yl)-1H-pyrrolo[2,3-b]pyridine]	441 nM
CCn1nc(-c2cnccn2)cc1-c1cnc2[nH]c(C3CCCCC3)cc2c1 [Example 33, 2-Cyclohexyl-5-(1-ethyl-3-(pyrazin-2-yl)-1H-pyrazol-5-yl)-1H-pyrrolo[2,3-b]pyridine]	111 nM
Cc1sc(-c2cccnc2)nc1-c1cnc2[nH]c(-c3c(F)cccc3F)cc2c1 [Example 5, 2-(2,6-Difluoro-phenyl)-5-(5-methyl-2-pyridin-3-yl-thiazol-4-yl)-1H-pyrrolo[2,3-b]pyridine]	90 nM
COC(=O)c1ccc(-c2cnc3[nH]c(-c4c(F)cccc4F)cc3c2)c(C)c1 [Example 1, 4-[2-(2,6-Difluoro-phenyl)-1H-pyrrolo[2,3-b]pyridin-5-yl]-3-methyl-benzoic acid methyl ester]	588 nM
Cc1cc(S(=O)(=O)N(C)C)ccc1-c1cnc2[nH]c(-c3c(F)cccc3F)cc2c1 [Example 3, 4-[2-(2,6-Difluoro-phenyl)-1H-pyrrolo[2,3-b]pyridin-5-yl]-3,N,N-trimethyl-benzenesulfonamide]	124 nM
CCc1sc(-c2cccnc2)nc1-c1cnc2[nH]c(-c3c(F)cccc3F)cc2c1 [Example 13, 2-(2,6-Difluoro-phenyl)-5-(5-ethyl-2-pyridin-3-yl-thiazol-4-yl)-1H-pyrrolo[2,3-b]pyridine]	15 nM
Cc1sc(-c2ncco2)nc1-c1cnc2[nH]c(-c3c(F)cccc3F)cc2c1 [Example 8, 2-(2,6-Difluoro-phenyl)-5-(5-methyl-2-oxazol-2-yl-thiazol-4-yl)-1H-pyrrolo[2,3-b]pyridine]	102 nM
Cc1cc(S(=O)(=O)N(C)C)ccc1-c1cnc2[nH]c(-c3c(F)cccc3Cl)cc2c1 [Example 16, 4-[2-(2-Chloro-6-fluoro-phenyl)-1H-pyrrolo[2,3-b]pyridin-5-yl]-3,N,N-trimethyl-benzenesulfonamide]	99 nM
CCn1nc(-c2cnccn2)cc1-c1cnc2[nH]c(-c3c(F)cccc3Cl)cc2c1 [Example 17, 2-(2-Chloro-6-fluoro-phenyl)-5-(2-ethyl-5-pyrazin-2-yl-2H-pyrazol-3-yl)-1H-pyrrolo[2,3-b]pyridine]	15 nM
CCn1nc(C(F)(F)F)cc1-c1cnc2[nH]c(-c3ccncc3C)cc2c1 [Example 23, 5-(1-ethyl-3-(trifluoromethyl)-1H-pyrazol-5-yl)-2-(3-methylpyridin-4-yl)-1H-pyrrolo[2,3-b]pyridine]	145 nM
Cc1cc(S(C)(=O)=O)ncc1-c1cnc2[nH]c(-c3cnccc3Cl)cc2c1 [Example 29, 2-(4-Chloropyridin-3-yl)-5-(4-methyl-6-(methylsulfonyl)pyridin-3-yl)-1H-pyrrolo[2,3-b]pyridine]	275 nM
CNC(=O)c1cc(C)c(-c2cnc3[nH]c(-c4c(F)cccc4F)cc3c2)cn1 [Example 11, 5-[2-(2,6-Difluoro-phenyl)-1H-pyrrolo[2,3-b]pyridin-5-yl]-4-methyl-pyridine-2-carboxylic acid methylamide]	242 nM
COc1cc(C#N)ccc1-c1cnc2[nH]c(-c3c(F)cccc3Cl)cc2c1 [Example 19, 4-[2-(2-Chloro-6-fluoro-phenyl)-1H-pyrrolo[2,3-b]pyridin-5-yl]-3-methoxy-benzonitrile]	35 nM

SMILES	IC50
CCn1nc(-c2cccnc2)nc1-c1cnc2[nH]c(-c3c(F)cccc3F)cc2c1 [Example 9, 2-(2,6-Difluoro-phenyl)-5-(2-ethyl-5-pyridin-3-yl-2H-[1,2,4]-triazol-3-yl)-1H-pyrrolo[2,3-b]pyridine]	56 nM
Cc1sc(-c2cnccn2)nc1-c1cnc2[nH]c(-c3c(F)cccc3F)cc2c1 [Example 14, 2-(2,6-Difluoro-phenyl)-5-(5-methyl-2-pyrazin-2-yl-thiazol-4-yl)-1H-pyrrolo[2,3-b]pyridine]	36 nM
CCn1nc(C(F)(F)F)cc1-c1cnc2[nH]c(-c3c(F)cccc3F)cc2c1 [Example 7, 2-(2,6-Difluoro-phenyl)-5-(2-ethyl-5-trifluoromethyl-2H-pyrazol-3-yl)-1H-pyrrolo[2,3-b]pyridine]	54 nM
CCn1nc(-c2cccnc2)cc1-c1cnc2[nH]c(-c3ccncc3C)cc2c1 [Example 22, 5-(1-Ethyl-3-(pyridin-3-yl)-1H-pyrazol-5-yl)-2-(3-methylpyridin-4-yl)-1H-pyrrolo[2,3-b]pyridine]	163 nM
Cc1cc(S(C)(=O)=O)ncc1-c1cnc2[nH]c(-c3cnccc3C)cc2c1 [Example 27, 5-(4-Methyl-6-(methylsulfonyl)pyridin-3-yl)-2-(4-methylpyridin-3-yl)-1H-pyrrolo[2,3-b]pyridine]	438 nM
CCn1nc(-c2cnccn2)cc1-c1cnc2[nH]c(-c3cnccc3C)cc2c1 [Example 26, 5-(2-Ethyl-5-pyrazin-2-yl-2H-pyrazol-3-yl)-2-(4-methyl-pyridin-3-yl)-1H-pyrrolo[2,3-b]pyridine]	428 nM
Cn1nc(-c2cccnc2)nc1-c1cnc2[nH]c(-c3c(F)cccc3F)cc2c1 [Example 10, 2-(2,6-Difluoro-phenyl)-5-(2-methyl-5-pyridin-3-yl-2H-[1,2,4]triazol-3-yl)-1H-pyrrolo[2,3-b]pyridine]	106 nM
COc1ccc(-c2cnc3[nH]c(-c4c(F)cccc4F)cc3c2)c(OC)c1 [Example 2, 2-(2,6-Difluoro-phenyl)-5-(2,4-dimethoxy-phenyl)-1H-pyrrolo[2,3-b]pyridine]	150 nM
Cc1cc(C(=O)NCCO)ncc1-c1cnc2[nH]c(-c3c(F)cccc3F)cc2c1 [Example 12, 5-[2-(2,6-Difluoro-phenyl)-1H-pyrrolo[2,3-b]pyridin-5-yl]-4-methyl-pyridine-2-carboxylic acid (2-hydroxy-ethyl)-amide]	997 nM
CCn1nc(-c2cccnc2)cc1-c1cnc2[nH]c(-c3cnccc3Cl)cc2c1 [Example 28, 2-(4-chloropyridin-3-yl)-5-(1-ethyl-3-(pyridin-3-yl)-1H-pyrazol-5-yl)-1H-pyrrolo[2,3-b]pyridine]	185 nM
CCn1nc(-c2cccnc2)cc1-c1cnc2[nH]c(-c3c(F)cccc3F)cc2c1 [Example 4, 2-(2,6-Difluoro-phenyl)-5-(2-ethyl-5-pyridin-3-yl-2H-pyrazol-3-yl)-1H-pyrrolo[2,3-b]pyridine]	134 nM
Cc1cc(S(C)(=O)=O)ncc1-c1cnc2[nH]c(-c3c(F)cccc3Cl)cc2c1 [Example 20, 2-(2-Chloro-6-fluoro-phenyl)-5-(6-methanesulfonyl-4-methyl-pyridin-3-yl)-1H-pyrrolo[2,3-b]pyridine]	72 nM
CCn1nc(-c2cnccn2)cc1-c1cnc2[nH]c(-c3ccncc3C)cc2c1 [Example 21, 5-(2-Ethyl-5-pyrazin-2-yl-2H-pyrazol-3-yl)-2-(3-methyl-pyridin-4-yl)-1H-pyrrolo[2,3-b]pyridine]	158 nM
Cc1sc(-c2cnccn2)nc1-c1cnc2[nH]c(-c3c(F)cccc3Cl)cc2c1 [Example 18, 2-(2-Chloro-6-fluoro-phenyl)-5-(5-methyl-2-pyrazin-2-yl-thiazol-4-yl)-1H-pyrrolo[2,3-b]pyridine]	39 nM
Cc1cc(S(C)(=O)=O)ncc1-c1cnc2[nH]c(C3CCCCC3)cc2c1 [Example 31, 2-cyclohexyl-5-(4-methyl-6-(methylsulfonyl)pyridin-3-yl)-1H-pyrrolo[2,3-b]pyridine]	107 nM
Cn1nc(C(F)(F)F)cc1-c1cnc2[nH]c(-c3c(F)cccc3Cl)cc2c1 [Example 15, 2-(2-Chloro-6-fluoro-phenyl)-5-(2-methyl-5-trifluoromethyl-2H-pyrazol-3-yl)-1H-pyrrolo[2,3-b]pyridine]	53 nM
